Experimental data taken from publication PMC4919791, “Effect of curcumin analogs onα-synuclein aggregation and cytotoxicity” (Scientific Reports, 2016).

Assays:
α-Syn fibrils [1] = target: T1, α-Syn fibrils (Homo sapiens, UniProt P37840); experiment: MTT assay of α-Syn fibrils formed in presence of curcumin analogs; type: cell-based; conditions: 10 μM α-Syn fibril, 36 h, SH-SY5Y
T1 construct: made in house; host or cells: Escherichia coli BL21
Description: Next, we measured the effect of α-Syn fibrils formed in presence and absence of curcumin analogs on the viability of SH-SY5Y neuronal cell line by MTT reduction assay. SH-SY5Y cells were incubated with 10 μM α-Syn fibril formed in presence of various curcumin analogs for 36 h. […] However, the extent of decrease in toxicity was different for different analogs. […] The calcein-AM/ethidium homodimer-1 staining also further corroborated the results obtained from MTT and LDH assay (Fig. 8C).

preformed α-Syn fibrils [2] = target: T2, preformed α-Syn fibrils (Homo sapiens, UniProt P37840); experiment: LDH cytotoxicity assay of preformed α-Syn fibrils incubated with curcumin analogs; type: cell-based; conditions: fibrils incubated with analog 48 h; SH-SY5Y cells
T2 construct: made in house; host or cells: Escherichia coli BL21
Description: (§1) The concentration of the fibrils was determined by subtraction of supernatant concentration from the original concentration of α-Syn kept for fibrillation.
(§2) The percent LDH release was plotted as difference in the absorbance value of 490 nm and 690 nm, considering 100% release for the TritonX-100 treated cells.

α-Syn fibrils [3] = target: T1, α-Syn fibrils; experiment: LDH cytotoxicity assay of α-Syn fibrils formed in presence of curcumin analogs; type: cell-based; conditions: SH-SY5Y cells
Excerpt: as §2

α-Syn oligomers [4] = target: T3, α-Syn oligomers (Homo sapiens, UniProt P37840); experiment: TEM of α-Syn oligomers with C1/C6; type: biochemical
T3 construct: made in house; host or cells: Escherichia coli BL21
Excerpt: (§3) It has been shown that α-Syn mutants that form oligomers preferentially are more toxic and kill dopaminergic neurons in animal models as compared to fibril forming mutants. Therefore, compounds that effectively reduce the toxicity of oligomers could be beneficial for the treatment of PD. In the present study, we tested the effect of curcumin and its analogs on the toxicity, hydrophobic exposure and morphology of α-Syn oligomers isolated using size exclusion chromatography (SEC). The toxicity of α-Syn oligomers in presence and absence of curcumin/analogs were initially tested using MTT assay. […] To further validate the effectiveness of C6 to reduce the cytotoxicity of α-Syn oligomers, we also performed LDH cytotoxicity assay and Calcein-AM/Ethidium homodimer-1 staining. […] As previously it has been proposed that curcumin reduces the oligomers toxicity by altering their exposed hydrophobic surface, we also measured the hydrophobic surface exposure of preformed α-Syn oligomers incubated with curcumin and its analogs.
5 μl of various species of α-Syn (50 μM) incubated in absence and presence of curcumin and its analogs were spotted on carbon coated formavar grid and air dried for 10 min. The samples were then washed thrice with autoclaved MQ. The samples were then stained with 10 μl of uranyl formate 1% (w/v) and incubated in dark for 10 min. […]

preformed α-Syn fibrils [5] = target: T2, preformed α-Syn fibrils; experiment: CD spectroscopy of preformed α-Syn fibrils with analogs; type: biochemical; conditions: 0 h and 48 h of incubation
Description: Further, the effect of curcumin analogs on the secondary structure of protein in preformed amyloid fibrils was studied by circular dichroism (CD) spectroscopy at 0 h and after 48 h of incubation. […] To further validate this, Fourier transform infrared spectroscopy (FTIR) was also performed with these samples, where spectra were recorded from 1500 to 1800 cm^−1.The region characteristic of protein secondary structures (1600–1700 cm^−1) was deconvoluted and the peaks were assigned according to published reports. FTIR spectra in the 1600–1700 cm^−1 region of preformed α-Syn fibrils in absence and presence of curcumin and its analogs are presented in Figs 4B and S4 and their percentage of secondary structures are shown in Table-S1.
20 μl of protein solution from 80 μM stock was diluted to 200 μl in 20 mM MES buffer, pH 6.0 with 0.01% NaN3 such that final protein concentration becomes 8 μM. The protein solution was then placed into a quartz cell (Hellma, Forest Hills, NY) of 0.1 cm path-length. Spectra were recorded using JASCO-810 instrument at 25 °C. Spectra acquisition was over the wavelength range of 198–260 nm with the scan speed of 100 nm/min, bandwidth 1 nm, data pitch 1 nm and response time of 1 sec. Processing of raw data was done by subtraction of buffer spectra and subsequently smoothing according to the manufacturer’s instructions.

[6] = target: T4, preformed α-Syn amyloid fibrils (Homo sapiens, UniProt P37840); experiment: MTT assay of preformed α-Syn fibrils incubated with curcumin analogs; type: cell-based; conditions: fibrils incubated with analog 48 h at 37 °C; SH-SY5Y cells
T4 construct: made in house; host or cells: Escherichia coli BL21
Description: as §1

α-Syn oligomers [7] = target: T3, α-Syn oligomers; experiment: Calcein-AM/EthD-1 staining, α-Syn oligomers with C1/C6; type: cell-based; conditions: SH-SY5Y cells
Excerpt: It has been shown that α-Syn mutants that form oligomers preferentially are more toxic and kill dopaminergic neurons in animal models as compared to fibril forming mutants. Therefore, compounds that effectively reduce the toxicity of oligomers could be beneficial for the treatment of PD. In the present study, we tested the effect of curcumin and its analogs on the toxicity, hydrophobic exposure and morphology of α-Syn oligomers isolated using size exclusion chromatography (SEC). The toxicity of α-Syn oligomers in presence and absence of curcumin/analogs were initially tested using MTT assay. […] As previously it has been proposed that curcumin reduces the oligomers toxicity by altering their exposed hydrophobic surface, we also measured the hydrophobic surface exposure of preformed α-Syn oligomers incubated with curcumin and its analogs.
(§4) For this assay, SH-SY5Y cells were seeded in 96 well plate and incubated with identical concentrations of oligomers/fibrils (as used in MTT assay) in absence and presence of curcumin and its analogs for 36 h in 5% CO2 incubator at 37 °C. […] Calcein-AM/Ethidium homodimer-1 signal was then checked and imaged with an inverted fluorescence microscope (Leica DMi8). […] The free calcein emits strong fluorescence signal at ~535 nm, which could be easily observed in the green channel of a microscope. […]

preformed α-Syn fibrils [8] = target: T2, preformed α-Syn fibrils; experiment: Calcein-AM/EthD-1 staining, preformed α-Syn fibrils with analogs; type: cell-based; conditions: SH-SY5Y cells
Description: Previously it has been shown that curcumin decreases the toxicity of α-Syn amyloid fibrils by reducing the exposed hydrophobic surfaces. To delineate whether curcumin analogs can decrease the toxicity of preformed α-Syn fibrils, we performed cell viability assay. For this, 10-days incubated α-Syn solution was centrifuged (fibril formation was confirmed by electron microscopy (EM)) and the pelleted fibrils were then re-dissolved in same volume of 20 mM MES buffer (pH 6.0, 0.01% NaN3). The concentration of the fibrils was determined by subtraction of supernatant concentration from the original concentration of α-Syn kept for fibrillation. […] After incubation, we measured the effect of curcumin analogs on the toxicity of preformed α-Syn amyloid fibrils by MTT reduction assay on SH-SY5Y cells. […]
as §4

α-Syn oligomers [9] = target: T3, α-Syn oligomers; experiment: LDH cytotoxicity assay of α-Syn oligomers with C1/C6; type: cell-based; conditions: oligomers incubated 30 minutes with compound; SH-SY5Y cells
Excerpt: as §3
10 μM of α-Syn oligomers/fibrils incubated with and without 5 μM curcumin/analogs were added to SH-SY5Y cells (10,000 cells/well) in 96 well plate. […] The percent LDH release was plotted as difference in the absorbance value of 490 nm and 690 nm, considering 100% release for the TritonX-100 treated cells.

preformed α-Syn fibrils [10] = target: T2, preformed α-Syn fibrils; experiment: Nile red binding assay on preformed α-Syn fibrils; type: biochemical; conditions: fibrils incubated with analog 48 h
Description: (§5) Stock solution of NR was prepared in DMSO (1 mM). […] Similar experimental protocol was used for NR binding to oligomers. FluoroMax-4 spectrofluorometer (HORIBA JobinYvon) was used with excitation and emission slit widths of 5 nm. The maximum NR fluorescence obtained at ~630 nm was used for plotting bar diagrams.

α-Syn oligomers [11] = target: T3, α-Syn oligomers; experiment: MTT assay of α-Syn oligomers pre-incubated with curcumin analogs; type: cell-based; conditions: 10 μM α-Syn + 5 μM analog, 30 min RT; SH-SY5Y cells
Excerpt: as §3
For isolation of α-Syn oligomers, we used previously established protocol. Briefly, lyophilized α-Syn powder was dissolved in MES buffer, pH 6.0, 0.01% NaN3, at a concentration of 50 mg/ml. The dissolved protein was then centrifuged at 14,000 × g for 30 min at 4 °C using a table top microcentrifuge (HITACHI, himac CT15RE, Japan). […]

α-Syn = target: T5, α-Syn (Homo sapiens, UniProt P37840); experiment: TEM of α-Syn aggregates formed in presence of analogs; type: biochemical
T5 construct: made in house; host or cells: Escherichia coli BL21
Description: Subsequently, we examined the effect of these analogs on α-Syn oligomerization by time dependent static light scattering experiment. […] After aggregation, TEM study was done to determine the effects of these analogs on the morphology of the resultant aggregates.
The samples were then washed thrice with autoclaved MQ. The samples were then stained with 10 μl of uranyl formate 1% (w/v) and incubated in dark for 10 min. The EM image of each sample was acquired at 120 kV with magnifications in the range of 26,000X and 43,000X using a transmission electron microscope (TECNAI12 D312 FEI, Netherlands).

[12] = target: T6, preformed α-Syn oligomers (Homo sapiens, UniProt P37840); experiment: Nile red binding assay on α-Syn oligomers; type: biochemical; conditions: compared to α-Syn oligomers alone
T6 construct: made in house; host or cells: Escherichia coli BL21
Description: Therefore, compounds that effectively reduce the toxicity of oligomers could be beneficial for the treatment of PD.
as §5

[13] = Stability of curcumin analogs by time-dependent intrinsic fluorescence; type: physicochemical; conditions: 20 mM MES buffer pH 6.0, 0.01% NaN3, 37 °C
Description: 1μl of this DMSO-stock solution was transferred to 2 ml microfuge tube and 1 ml of 20 mM MES buffer (pH 6.0, 0.01% NaN3) was added to it and mixed immediately by vortexing. These solutions were incubated at 37 °C and their respective fluorescence was taken at certain time intervals. The fluorescence was monitored by placing the 200 μl of the incubated solution in 0.1 cm path-length quartz cuvette (Hellma, Forest Hills, NY) and the spectra were acquired by using FluoroMax-4 spectrofluorometer (HORIBA JobinYvon) instrument with excitation and emission slit widths of 5 nm and 10 nm respectively. The fluorescence intensity maxima for each sample were plotted against time of incubation and fitted in exponential decay 1 in the Origin 8.0 software according to manufacture’s protocol (Fig. 2A).

Row | morphology of α-Syn oligomers (TEM) (α-Syn oligomers [4]) | secondary structure of preformed α-Syn fibrils by CD (preformed α-Syn fibrils [5]) | ethidium homodimer staining with α-Syn oligomers (α-Syn oligomers [7]) | Calcein-AM/EthD-1 staining with preformed α-Syn fibrils (preformed α-Syn fibrils [8]) | SMILES | toxicity of α-Syn fibrils formed in presence of analog, MTT (α-Syn fibrils [1]) | effect on cell death by preformed α-Syn fibrils, LDH (preformed α-Syn fibrils [2]) | toxicity of α-Syn fibrils formed in presence of analog, LDH (α-Syn fibrils [3]) | effect on toxicity of preformed α-Syn fibrils, MTT [6] | LDH release with α-Syn oligomers (α-Syn oligomers [9]) | Nile red fluorescence of preformed α-Syn fibrils (exposed hydrophobic surface) (preformed α-Syn fibrils [10]) | effect on toxicity of α-Syn oligomers, MTT (α-Syn oligomers [11]) | average fibril thickness of fibrils formed in presence of analog (α-Syn) | Nile red fluorescence of α-Syn oligomers (exposed hydrophobic surface) [12] | relative stability compared with curcumin (slope of normalized fluorescence versus time) [13]
1 | significantly altered their morphology | remains unaltered | less ethidium homodimer staining | less nuclear staining by EthD-1 | COc1cc(/C=C/C(=O)CC(=O)/C=C/c2ccc(O)c(OC)c2)ccc1O [C1, Curcumin (diferuloylmethane), reference compound] | less toxicity to cells | decrease in cell death | less toxicity to cells | reduction in toxicity | reduced LDH release | – | – | – | – | –
2 | – | – | – | – | COc1ccc(/C=C/C(=O)CC(=O)/C=C/c2ccc(OC)c(OC)c2)cc1OC [C2] | – | decrease in cell death | – | – | – | less NR fluorescence for fibrils as compared to curcumin | slight reduction in the toxicity | more in comparison to fibrils formed in presence of other analogs | increase in NR fluorescence | less stable than curcumin
